Experimental data: PubChem BioAssay AID1354 (Sanford-Burnham Center for Chemical Genomics, 2008)
Calls of active or inactive are those of the source.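 Rule for the calls: active = survival over 30 points above compound-free thapsigargin wells at any thapsigargin dose; inactive = the rest.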

test system: Jurkat, thapsigargin-induced death, ATPlite luminescence, 24 h; test: ER stress cell death suppression in Jurkat – Jurkat T-cell leukemia, ATP content luminescence (AID 1354); conditions: at 25 µM; stronger effect = higher value

Row | Structure (SMILES) | survival (thapsigargin 7.5 uM)
1 | CCOc1cccc(C2Nc3ccccc3NC3=C2C(=O)CC(c2ccc(OC)cc2)C3)c1 (stereo not drawn) | 46% (inactive)
2 | CSc1ccc(C2Nc3ccccc3NC3=C2C(=O)CC(c2ccccc2)C3)cc1 (stereo not drawn) | 44% (inactive)
3 | COc1ccc(C2CC(=O)C3=C(C2)Nc2ccccc2NC3c2cccc(C(F)(F)F)c2)cc1OC (stereo not drawn) | 42% (inactive)
4 | CC1(C)CC(=O)C2=C(C1)Nc1ccccc1NC2c1ccc(-c2ccccc2)cc1 (stereo not drawn) | 14% (inactive)
5 | CCOc1cc(C2Nc3ccccc3NC3=C2C(=O)CC(c2ccc(OC)cc2)C3)cc(Cl)c1O (stereo not drawn) | 55% (inactive)
6 | O=C1CC(c2ccccc2)CC2=C1C(c1c(F)cccc1Cl)Nc1ccccc1N2 (stereo not drawn) | 39% (inactive)
7 | CCCOc1ccc(C2Nc3ccccc3NC3=C2C(=O)CC(c2ccc(OC)c(OC)c2)C3)cc1 (stereo not drawn) | 44% (inactive)
8 | COc1ccc(C2CC(=O)C3=C(C2)Nc2ccccc2NC3c2cc(C)ccc2C)cc1 (stereo not drawn) | 54% (inactive)
9 | COc1ccc(C2CC(=O)C3=C(C2)Nc2ccccc2NC3c2cccc(Br)c2)cc1OC (stereo not drawn) | 34% (inactive)
10 | COc1ccc(C2CC(=O)C3=C(C2)Nc2ccccc2NC3c2cccc(Oc3ccccc3)c2)cc1OC (stereo not drawn) | 51% (inactive)
11 | COc1ccc(C2CC(=O)C3=C(C2)Nc2ccccc2NC3c2ccccc2C(F)(F)F)cc1OC (stereo not drawn) | 44% (inactive)

same assay, conditions: measured here: survival at thapsigargin 10 uM; at 25 µM; stronger effect = higher value

Row | Structure (SMILES) | survival [%]
12 | CCOc1cccc(C2Nc3ccccc3NC3=C2C(=O)CC(c2ccc(OC)cc2)C3)c1 (stereo not drawn) | 32
13 | CSc1ccc(C2Nc3ccccc3NC3=C2C(=O)CC(c2ccccc2)C3)cc1 (stereo not drawn) | 23
14 | COc1ccc(C2CC(=O)C3=C(C2)Nc2ccccc2NC3c2cccc(C(F)(F)F)c2)cc1OC (stereo not drawn) | 19
15 | CC1(C)CC(=O)C2=C(C1)Nc1ccccc1NC2c1ccc(-c2ccccc2)cc1 (stereo not drawn) | 3
16 | CCOc1cc(C2Nc3ccccc3NC3=C2C(=O)CC(c2ccc(OC)cc2)C3)cc(Cl)c1O (stereo not drawn) | 35
17 | O=C1CC(c2ccccc2)CC2=C1C(c1c(F)cccc1Cl)Nc1ccccc1N2 (stereo not drawn) | 23
18 | CCCOc1ccc(C2Nc3ccccc3NC3=C2C(=O)CC(c2ccc(OC)c(OC)c2)C3)cc1 (stereo not drawn) | 17
19 | COc1ccc(C2CC(=O)C3=C(C2)Nc2ccccc2NC3c2cc(C)ccc2C)cc1 (stereo not drawn) | 37
20 | COc1ccc(C2CC(=O)C3=C(C2)Nc2ccccc2NC3c2cccc(Br)c2)cc1OC (stereo not drawn) | 18
21 | COc1ccc(C2CC(=O)C3=C(C2)Nc2ccccc2NC3c2cccc(Oc3ccccc3)c2)cc1OC (stereo not drawn) | 37
22 | COc1ccc(C2CC(=O)C3=C(C2)Nc2ccccc2NC3c2ccccc2C(F)(F)F)cc1OC (stereo not drawn) | 32

same assay, conditions: measured here: survival at thapsigargin 15 uM; at 25 µM; stronger effect = higher value

Row | Structure (SMILES) | survival [%]
23 | CCOc1cccc(C2Nc3ccccc3NC3=C2C(=O)CC(c2ccc(OC)cc2)C3)c1 (stereo not drawn) | 1
24 | CSc1ccc(C2Nc3ccccc3NC3=C2C(=O)CC(c2ccccc2)C3)cc1 (stereo not drawn) | 4
25 | COc1ccc(C2CC(=O)C3=C(C2)Nc2ccccc2NC3c2cccc(C(F)(F)F)c2)cc1OC (stereo not drawn) | 1
26 | CC1(C)CC(=O)C2=C(C1)Nc1ccccc1NC2c1ccc(-c2ccccc2)cc1 (stereo not drawn) | 0
27 | CCOc1cc(C2Nc3ccccc3NC3=C2C(=O)CC(c2ccc(OC)cc2)C3)cc(Cl)c1O (stereo not drawn) | 2
28 | O=C1CC(c2ccccc2)CC2=C1C(c1c(F)cccc1Cl)Nc1ccccc1N2 (stereo not drawn) | 1
29 | CCCOc1ccc(C2Nc3ccccc3NC3=C2C(=O)CC(c2ccc(OC)c(OC)c2)C3)cc1 (stereo not drawn) | 1
30 | COc1ccc(C2CC(=O)C3=C(C2)Nc2ccccc2NC3c2cc(C)ccc2C)cc1 (stereo not drawn) | 2
31 | COc1ccc(C2CC(=O)C3=C(C2)Nc2ccccc2NC3c2cccc(Br)c2)cc1OC (stereo not drawn) | 1
32 | COc1ccc(C2CC(=O)C3=C(C2)Nc2ccccc2NC3c2cccc(Oc3ccccc3)c2)cc1OC (stereo not drawn) | 7
33 | COc1ccc(C2CC(=O)C3=C(C2)Nc2ccccc2NC3c2ccccc2C(F)(F)F)cc1OC (stereo not drawn) | 2
